{"source": "patent US11603378B2", "about": "“Azole silane compound” (Atotech Deutschland GmbH, priority 2018, dated 2023)", "format_in_all_cases": "physicochemical", "key": {"[1]": {"experiment": "Solubility test: time until 50 g/L of compound is fully dissolved in glycol ether solvent", "conditions": "approx. 22° C., constant stirring, test carried out for 30 minutes; for t [min] DEGBE (time until fully dissolved): 50 g/L in diethylene glycol monobutyl ether; for t [min] EGBE (time until fully dissolved): 50 g/L in ethylene glycol monobutyl ether", "protocol": "In a solubility test, solubility in diethylene glycol monobutyl ether (DEGBE) and ethylene glycol monobutyl ether (EGBE) as solvents was tested at approximately 22° C. under constant stirring. For that, the azole silane compound of Formula (Ia), obtained in Example A), 1), and the reference compound of formula (X) were dissolved in respective samples (mixtures).\nIn each solubility test the time “t” was determined until an amount of the respective compound in its highly viscous state, corresponding in each case to a concentration of 50 g/L of the azole silane compound (approximately corresponding to 5 wt.-%, based on the total weight of a respective test composition), was fully dissolved in the respective solvent. Each solubility test was carried out for 30 minutes."}, "[2]": {"experiment": "Stability test of alkaline storage solution (precipitation in dependence of pH)", "design": "key to precipitation, storage solution: xx = strong precipitation; x = little, insignificant precipitation; 0 = no precipitation", "conditions": "for precipitation, storage solution: 50° C., 4 wt.-% in 20 wt.-% water / 76 wt.-% DEGBE", "protocol": "C-2i) Alkaline Storage Solution: In a first stability test, stability of a compound of formula (Ib) obtained in Example A), 3) was further investigated in dependence of the pH. For that purpose, various storage solutions (according to the present invention and not according to the present invention) have been prepared each comprising 200 mL/L water (corresponding to approximately 20 wt.-%), 800 mL/L DEGBE (corresponding to approximately 76 wt.-%), and a compound of formula (Ib) in a total amount of 4 wt.-%, based on the total weight of the respective storage solution. The various pH values were obtained by adding sodium hydroxide or sulfuric acid. The stability was evaluated after 1, 7, and 15 days by carefully determining the presence of any precipitates. During the stability tests, the temperature of each storage solution was 50° C."}, "[3]": {"experiment": "Stability test of aqueous working solution (precipitation at various pH)", "design": "key: xx = strong precipitation; x = little, insignificant precipitation; 0 = no precipitation", "conditions": "50° C., approx. 1 wt.-%, 250 mL/L storage solution pH 11 + 750 mL/L water", "protocol": "C-2ii) Aqueous Working Solution:\nIn a second stability test, stability of a compound of formula (Ib) also obtained in Example A), 3) was investigated at various pH values but with lower concentration compared to C-2i.\nFor that purpose, various working solutions (according to the present invention and not according to the present invention) have been prepared each comprising 250 mL/L of storage solution with pH 11 as described above under item C-2i and 750 mL/L water such that the compound of formula (Ib) was present in an total amount of approximately 1 wt.-%, based on the total weight of the respective working solution. The various pH values were obtained by adding sulfuric acid. The stability was evaluated after 14 days by carefully determining the presence of precipitates. During the stability tests, the temperature of each storage solution was kept constant at 50° C."}}, "data": [{"molecule": "CO[Si](CCCOCC(O)CSc1nnc(N)s1)(OC)OC", "note": "(stereo not shown) [formula (Ia)]", "values": [{"measurement": "t [min] DEGBE (time until fully dissolved)", "setting": "[1]", "result": 12, "unit": "min"}, {"measurement": "t [min] EGBE (time until fully dissolved)", "setting": "[1]", "result": 10, "unit": "min"}]}, {"molecule": "CO[Si](CCCOCC(O)CSc1nnc(N)[nH]1)(OC)OC", "note": "(stereo not shown) [formula (Ib)]", "values": [{"measurement": "stability in DEGBE storage solution (in words)", "setting": "[2]; comparatively high pH, concentrations of approximately 4 wt.-%", "result": "stable"}, {"measurement": "precipitation, storage solution", "setting": "[2]; pH 4, 1 d", "result": "xx"}, {"measurement": "precipitation, storage solution", "setting": "[2]; pH 4, 7 d", "result": "xx"}, {"measurement": "precipitation, storage solution", "setting": "[2]; pH 4, 15 d", "result": "xx"}, {"measurement": "precipitation, storage solution", "setting": "[2]; pH 7, 1 d", "result": "xx"}, {"measurement": "precipitation, storage solution", "setting": "[2]; pH 7, 7 d", "result": "xx"}, {"measurement": "precipitation, storage solution", "setting": "[2]; pH 7, 15 d", "result": "xx"}, {"measurement": "precipitation, storage solution", "setting": "[2]; pH 10, 1 d", "result": "x"}, {"measurement": "precipitation, storage solution", "setting": "[2]; pH 10, 7 d", "result": "x"}, {"measurement": "precipitation, storage solution", "setting": "[2]; pH 10, 15 d", "result": "x"}, {"measurement": "precipitation, storage solution", "setting": "[2]; pH 11, 1 d", "result": 0}, {"measurement": "precipitation, storage solution", "setting": "[2]; pH 11, 7 d", "result": 0}, {"measurement": "precipitation, storage solution", "setting": "[2]; pH 11, 15 d", "result": 0}, {"measurement": "precipitation, storage solution", "setting": "[2]; pH 12, 1 d", "result": 0}, {"measurement": "precipitation, storage solution", "setting": "[2]; pH 12, 7 d", "result": 0}, {"measurement": "precipitation, storage solution", "setting": "[2]; pH 12, 15 d", "result": 0}, {"measurement": "precipitation, working solution", "setting": "[3]; pH 4, after 14 days", "result": "xx"}, {"measurement": "precipitation, working solution", "setting": "[3]; pH 6, after 14 days", "result": 0}, {"measurement": "precipitation, working solution", "setting": "[3]; pH 7, after 14 days", "result": 0}, {"measurement": "precipitation, working solution", "setting": "[3]; pH 8, after 14 days", "result": "x"}, {"measurement": "precipitation, working solution", "setting": "[3]; pH 10, after 14 days", "result": "xx"}]}, {"molecule": "CO[Si](CCCSc1nnc(N)[nH]1)(OC)OC", "note": "[formula (X), reference compound]", "values": [{"measurement": "t [min] DEGBE (time until fully dissolved)", "setting": "[1]", "result": 25, "unit": "min"}, {"measurement": "t [min] EGBE (time until fully dissolved)", "setting": "[1]", "result": "> 30", "unit": "min"}]}]}
